Measurements reported in patent EP0005186A1, “3-Alkyl-5-(2-hydroxystyryl)-isoxazoles and process for their preparation” (BASF Aktiengesellschaft, priority 1978, dated 1979).

Experiments:
[1] = test system: Maus; assay: in vivo; settings: Maus, i.p., observation 1 week; 10080 min
Method: (§1) Die Applikation der getesteten Substanzen erfolgt 10 min vor Isoproterenol an Gruppen von 3 bis 5 Katzen pro Dosis. […] Blutdrucksenkende Wirkung an der. narkotisierten Ratte. Zur Testung der blutdrucksenkenden Wirkung erhalten Gruppen von 3 bis 5 männlichen Sprague-Dawley-Ratten (Gewicht: 230 - 280 g) in Urethan-Narkose (1,78 g/kg) i.p.) die Substanz intravenös appliziert. Die Messung des Blutdrucks in der A.carotis erfolgt über Statham-Transducer. Als ED 20 % wird die Dosis ermittelt, welche den mittleren Carotisdruck um 20 % senkt. • 3. Antihypertensive Wirkung an spontan hypertonen Ratten. Die Substanzen werden Gruppen von 8 männlichen spontan hypertonen Okamoto-Ratten (Gewicht: 280 - 350 g) oral appliziert. Vor und zwei Stunden nach der Applikation wird der systolische Blutdruck am Rattenschwanz unblutig mit Hilfe von Piezokristallaufnehmern gemessen. Als ED 20 % wird unter Berücksichtigung der Nerte unbehandelter Kontrolltiere die Dosis bestimmt, welche den systolischen Druck um 20 % senkt. • 4. […] Die Beobachtungsdauer beträgt 1 Woche. Die Berechnung der wirksamen Dosen (s. 1.-3.) erfolgte aus den linearen Beziehungen zwischen den Logarithmen der Dosen und der Wirkung mit Hilfe der Regressionsanalyse.

[2] = test system: Isoproterenol--Tachycardie der narkotisierten Katze; assay: beta-sympatholytic effect on isoproterenol tachycardia in the anaesthetised cat; type: in vivo; settings: for ß-Sympatholytische Wirkung R.W. (Relative Wirksamkeit): Propranolol = 1,00; for ED50: Felis catus, iv, read-out: ß-Sympatholytische Wirkung ED 50 %
Method: as §1

[3] = test system: narkotisierten Ratte; assay: blood-pressure-lowering effect in the anaesthetised rat; settings: for Blutdrucksenkende Wirkung ED 20 %: Urethan-Narkose, dose lowering blood pressure by 20 %; for Tiere gestorben: 10 mg/kg, dead animals of 6; for ED20: Rattus norvegicus, iv, read-out: Blutdrucksenkende Wirkung ED 20 %
Method: (§2) Die Applikation der getesteten Substanzen erfolgt 10 min vor Isoproterenol an Gruppen von 3 bis 5 Katzen pro Dosis. […] Blutdrucksenkende Wirkung an der. narkotisierten Ratte. Zur Testung der blutdrucksenkenden Wirkung erhalten Gruppen von 3 bis 5 männlichen Sprague-Dawley-Ratten (Gewicht: 230 - 280 g) in Urethan-Narkose (1,78 g/kg) i.p.) die Substanz intravenös appliziert. Die Messung des Blutdrucks in der A.carotis erfolgt über Statham-Transducer. Als ED 20 % wird die Dosis ermittelt, welche den mittleren Carotisdruck um 20 % senkt. • 3. Antihypertensive Wirkung an spontan hypertonen Ratten. Die Substanzen werden Gruppen von 8 männlichen spontan hypertonen Okamoto-Ratten (Gewicht: 280 - 350 g) oral appliziert. Vor und zwei Stunden nach der Applikation wird der systolische Blutdruck am Rattenschwanz unblutig mit Hilfe von Piezokristallaufnehmern gemessen. Als ED 20 % wird unter Berücksichtigung der Nerte unbehandelter Kontrolltiere die Dosis bestimmt, welche den systolischen Druck um 20 % senkt. • 4. Akute Toxizität an der Maus Zur Bestimmung der akuten Toxizität (LD 50) werden die Substanzen Gruppen von je 10 weiblichen NMRI-Mäusen (Gewicht: 19 - 20 g) intraperitoneal appliziert. Die Beobachtungsdauer beträgt 1 Woche. Die Berechnung der wirksamen Dosen (s. 1.-3.) erfolgte aus den linearen Beziehungen zwischen den Logarithmen der Dosen und der Wirkung mit Hilfe der Regressionsanalyse. Die LD 50 (4.) wurden mit Hilfe der Probit-Analyse bestimmt.

[4] = test system: spontan hypertonen Ratten; assay: antihypertensive effect in spontaneously hypertensive rats; type: in vivo, Okamoto-Ratten; settings: spontan hypertone Ratten, oral
Method: as §2, with “Die LD 50 (4.) wurden mit Hilfe der Probit-Analyse bestimmt.” left out

[5] = in vivo; settings: mouse, in vivo, ip
Method: as §1

For “3-Äthyl-5-[2-(2-hydroxy-3-cyclopropylaminopropoxy)-styryl]-isoxazol [Verbindung 8]”, the “Letalität LD 50” value [1] was 95 mg/kg, the “ß-sympatholytische Wirksamkeit compared with Propranolol” value [2] was “etwa wirkungsgleich” and the “ß-Sympatholytische Wirkung ED 50 %” value ([2]; Katze, Hexobarbital-Narkose, i.v., dose inhibiting the isoproterenol heart-rate increase by 50 %) was 0,12 mg/kg. The “ß-Sympatholytische Wirkung R.W. (Relative Wirksamkeit)” value ([2]; Katze, i.v.) was 0,9 and the “Blutdrucksenkende Wirkung ED 20 %” value ([3]; Ratte, i.v.) was 0,83 mg/kg.
With `CC(C)NCC(O)COc1cccc2ccccc12` (centres unmarked) [Propranolol, reference compound] the “Antihypertensive Wirkung” value ([4]; bis zu einer Dosis von 100 mg/kg) was “wirkungslos”, the Tiere gestorben ([3]; Ratte, i.v.) was 2 von 6 and the Blutdrucksteigerung ([3]; Ratte, i.v., bis 2,15 mg/kg) was “blutdrucksteigernd”.
In the case of `Cc1cc(C=Cc2ccccc2OCC(O)CNC(C)C)on1` (centres unmarked) [Verbindung 6, 3-Methyl-5-[2-(2-hydroxy-3-isopropyl-aminopropoxy)-styryl]-isoxazol], the LD50 at 168 h [5] is reported as 108 mg/kg, the ED50 [2] is reported as 0.0077 mg/kg and the “ß-Sympatholytische Wirkung R.W. (Relative Wirksamkeit)” value ([2]; Katze, i.v.) is reported as 14,3. The ED20 [3] was 0.65 mg/kg.
With `Cc1cc(C=Cc2ccccc2OCC(O)CNC(C)(C)C)on1` (centres unmarked) [Verbindung 7, 3-Methyl-5-[2-(2-hydroxy-3-tert.-butylaminopropoxy)-styryl]-isoxazol] the LD50 at 168 h [5] was 123 mg/kg, the ED20 ([4]; Rattus norvegicus, systolic pressure 2 h after dosing lowered by 20 %, read-out: Antihypertensive Wirkung ED 20 %) was 14.5 mg/kg and the ED50 [2] was 0.0055 mg/kg. The “ß-Sympatholytische Wirkung R.W. (Relative Wirksamkeit)” value ([2]; Katze, i.v.) was 20,0, the “Blutdrucksenkende Wirkung ED 20 %” value ([3]; Ratte, i.v.) was 0,40 mg/kg and the “ratio of the 10 mg/kg dose to the blood-pressure-lowering dose (0,4 mg/kg)” value ([3]; Ratte, i.v.) was 25 mal. It also gave a Tiere gestorben ([3]; Ratte, i.v.) of 1 von 6 and an ED20 [3] of 0.4 mg/kg.
In the case of `CCc1cc(C=Cc2ccccc2OCC(O)CNC(C)(C)C)on1` (centres unmarked) [Verbindung 9, 3-Äthyl-5-[2-(2-hydroxy-3-tert.-butylaminopropoxy)-styryl]-isoxazol], the LD50 at 168 h [5] is reported as 84 mg/kg, the “ß-Sympatholytische Wirkung R.W. (Relative Wirksamkeit)” value ([2]; Katze, i.v.) is reported as 6,1 and the ED20 [3] is reported as 0.93 mg/kg.
For `C#CC(C)(C)NCC(O)COc1ccccc1C=Cc1cc(C)no1` (centres unmarked) [Verbindung 10], the LD50 at 168 h [5] was 247 mg/kg, the “ß-Sympatholytische Wirkung R.W. (Relative Wirksamkeit)” value ([2]; Katze, i.v.) was 6,5 and the ED20 [3] was 1 mg/kg.
